# In patent US20250255867A1 (Kadmon Corporation, LLC, priority 2022, published 2025):
# System: patients with cGVHD
# Experiment: Example 1: pulmonary function (percent predicted FEV1, FVC, DLco, TLC, RV) change from baseline
# Type: in vivo, human
# Procedure: Change From Baseline in Percent Predicted Forced Expiratory Volume in 1 Second (FEV1) at Each Specified Time Points. FEV1 was the volume of air exhaled from the lungs in the first second of a forced expiration as measured by spirometer. Baseline value was defined as valid and last non-missing value obtained within 28 days prior to participant receiving first study medication. EOT visit was performed within 3 days after the participant's last dose of study drug. […] Analysis was performed on mITT population. Here, ‘number analyzed’=participants with available data for each specified category. Here, ‘0’ in the number analyzed field signifies that none of the participants were available for the analysis at the specified time points.
# Change From Baseline in Percent Predicted Forced Vital Capacity (FVC) at Each Specified Time Points. FVC was the total amount of air (in liters) exhaled from the lungs during the lung function test measured by spirometer which assessed the change in lung function related to the disease status. Baseline value was defined as valid and last non-missing value obtained within 28 days prior to participant receiving first study medication. EOT visit was performed within 3 days after the participant's last dose of study drug. […] Analysis was performed on mITT population. Here, ‘number analyzed’=participants with available data for each specified category. Here, ‘0’ in the number analyzed field signifies that none of the participants were available for the analysis at the specified time points.
# Change From Baseline in Percent Predicted Hemoglobin (HGB) Corrected Diffusing Capacity of Lung for Carbon Monoxide (DLco) at Each Specified Time Points. DLco is a measurement of the ability of the lungs to transfer gases from the air to the blood. Change from baseline in diffusing capacity of the lung for carbon monoxide (percent predicted hemoglobin level corrected) was reported for this measure. Baseline value was defined as valid and last non-missing value obtained within 28 days prior to participant receiving first study medication. EOT visit was performed within 3 days after the participant's last dose of study drug. […] Analysis was performed on mITT population. Here, ‘number analyzed’=participants with available data for each specified category. Here, ‘0’ in the number analyzed field signifies that none of the participants were available for the analysis at the specified time points.
# Change From Baseline in Percent Predicted Total Lung Capacity (TLC) at Each Specified Time Points. TLC is the volume of air in the lungs upon the maximum effort of inspiration. Baseline value was defined as valid and last non-missing value obtained within 28 days prior to participant receiving first study medication. EOT visit was performed within 3 days after the participant's last dose of study drug. […] Analysis was performed on mITT population. Here, ‘number analyzed’=participants with available data for each specified category.
structure (smiles),measurement,setting,value
"CC(C)NC(=O)COc1cccc(-c2nc(Nc3ccc4[nH]ncc4c3)c3ccccc3n2)c1 [Belumosudil, 2-{3-[4-(1H-indazol-5-ylamino)-2-quinazolinyl]phenoxy}-N-(propan-2-yl) acetamide]","Change From Baseline in Percent Predicted Residual Volume (RV), Mean (Standard Deviation)","Cohort 1: 200 mg QD, Cycle 3, Day 1, n=14",0.2 (22.2) percent predicted RV
same,"Change From Baseline in Percent Predicted Residual Volume (RV), Mean (Standard Deviation)","Cohort 1: 200 mg QD, Cycle 5, Day 1, n=13",5.2 (24.5) percent predicted RV
same,"Change From Baseline in Percent Predicted Residual Volume (RV), Mean (Standard Deviation)","Cohort 1: 200 mg QD, Cycle 7, Day 1, n=11",4.9 (29.1) percent predicted RV
same,"Change From Baseline in Percent Predicted Residual Volume (RV), Mean (Standard Deviation)","Cohort 1: 200 mg QD, Cycle 9, Day 1, n=9",6.4 (27.4) percent predicted RV
same,"Change From Baseline in Percent Predicted Residual Volume (RV), Mean (Standard Deviation)","Cohort 1: 200 mg QD, Cycle 11, Day 1, n=7",22.1 (29.6) percent predicted RV
same,"Change From Baseline in Percent Predicted Residual Volume (RV), Mean (Standard Deviation)","Cohort 1: 200 mg QD, Cycle 12, Day 1, n=1",−28.0 (—) percent predicted RV
same,"Change From Baseline in Percent Predicted Residual Volume (RV), Mean (Standard Deviation)","Cohort 1: 200 mg QD, Cycle 13, Day 1, n=7",20.3 (19.9) percent predicted RV
same,"Change From Baseline in Percent Predicted Residual Volume (RV), Mean (Standard Deviation)","Cohort 1: 200 mg QD, Cycle 14, Day 1, n=1",78.0 (—) percent predicted RV
same,"Change From Baseline in Percent Predicted Residual Volume (RV), Mean (Standard Deviation)","Cohort 1: 200 mg QD, Cycle 15, Day 1, n=6",20.3 (27.4) percent predicted RV
same,"Change From Baseline in Percent Predicted Residual Volume (RV), Mean (Standard Deviation)","Cohort 1: 200 mg QD, Cycle 16, Day 1, n=1",0.0 (—) percent predicted RV
same,"Change From Baseline in Percent Predicted Residual Volume (RV), Mean (Standard Deviation)","Cohort 1: 200 mg QD, Cycle 17, Day 1, n=5",13.6 (27.8) percent predicted RV
same,"Change From Baseline in Percent Predicted Residual Volume (RV), Mean (Standard Deviation)","Cohort 1: 200 mg QD, Cycle 19, Day 1, n=5",5.4 (28.7) percent predicted RV
same,"Change From Baseline in Percent Predicted Residual Volume (RV), Mean (Standard Deviation)","Cohort 1: 200 mg QD, Cycle 21, Day 1, n=3",8.3 (10.0) percent predicted RV
same,"Change From Baseline in Percent Predicted Residual Volume (RV), Mean (Standard Deviation)","Cohort 1: 200 mg QD, Cycle 23, Day 1, n=3",0.3 (5.1) percent predicted RV
same,"Change From Baseline in Percent Predicted Residual Volume (RV), Mean (Standard Deviation)","Cohort 1: 200 mg QD, Cycle 24, Day 1, n=1",−4.0 (—) percent predicted RV
same,"Change From Baseline in Percent Predicted Residual Volume (RV), Mean (Standard Deviation)","Cohort 1: 200 mg QD, Cycle 25, Day 1, n=2",1.0 (9.9) percent predicted RV
same,"Change From Baseline in Percent Predicted Residual Volume (RV), Mean (Standard Deviation)","Cohort 1: 200 mg QD, Cycle 26, Day 1, n=1",−3.0 (—) percent predicted RV
same,"Change From Baseline in Percent Predicted Residual Volume (RV), Mean (Standard Deviation)","Cohort 1: 200 mg QD, Cycle 27, Day 1, n=2",19.5 (41.7) percent predicted RV
same,"Change From Baseline in Percent Predicted Residual Volume (RV), Mean (Standard Deviation)","Cohort 1: 200 mg QD, Cycle 29, Day 1, n=2",−13.0 (42.4) percent predicted RV
same,"Change From Baseline in Percent Predicted Residual Volume (RV), Mean (Standard Deviation)","Cohort 1: 200 mg QD, Cycle 37, Day 1, n=1",−54.0 (—) percent predicted RV
same,"Change From Baseline in Percent Predicted Residual Volume (RV), Mean (Standard Deviation)","Cohort 1: 200 mg QD, Cycle 38, Day 1, n=1",8.0 (—) percent predicted RV
same,"Change From Baseline in Percent Predicted Residual Volume (RV), Mean (Standard Deviation)","Cohort 1: 200 mg QD, Cycle 39, Day 1, n=2",43.0 (89.1) percent predicted RV
same,"Change From Baseline in Percent Predicted Residual Volume (RV), Mean (Standard Deviation)","Cohort 1: 200 mg QD, Cycle 40, Day 1, n=1",−1.0 (—) percent predicted RV
same,"Change From Baseline in Percent Predicted Residual Volume (RV), Mean (Standard Deviation)","Cohort 1: 200 mg QD, Cycle 41, Day 1, n=1",80.0 (—) percent predicted RV
same,"Change From Baseline in Percent Predicted Residual Volume (RV), Mean (Standard Deviation)","Cohort 1: 200 mg QD, Cycle 43, Day 1, n=1",58.0 (—) percent predicted RV
same,"Change From Baseline in Percent Predicted Residual Volume (RV), Mean (Standard Deviation)","Cohort 1: 200 mg QD, Cycle 47, Day 1, n=1",42.0 (—) percent predicted RV
same,"Change From Baseline in Percent Predicted Residual Volume (RV), Mean (Standard Deviation)","Cohort 1: 200 mg QD, Cycle 48, Day 1, n=1",−50.0 (—) percent predicted RV
same,"Change From Baseline in Percent Predicted Residual Volume (RV), Mean (Standard Deviation)","Cohort 1: 200 mg QD, Cycle 49, Day 1, n=1",−14.0 (—) percent predicted RV
same,"Change From Baseline in Percent Predicted Residual Volume (RV), Mean (Standard Deviation)","Cohort 1: 200 mg QD, Cycle 51, Day 1, n=1",22.0 (—) percent predicted RV
same,"Change From Baseline in Percent Predicted Residual Volume (RV), Mean (Standard Deviation)","Cohort 1: 200 mg QD, Cycle 52, Day 1, n=1",−4.0 (—) percent predicted RV
same,"Change From Baseline in Percent Predicted Residual Volume (RV), Mean (Standard Deviation)","Cohort 1: 200 mg QD, Cycle 53, Day 1, n=1",22.0 (—) percent predicted RV
same,"Change From Baseline in Percent Predicted Residual Volume (RV), Mean (Standard Deviation)","Cohort 1: 200 mg QD, Cycle 54, Day 1, n=1",4.0 (—) percent predicted RV
same,"Change From Baseline in Percent Predicted Residual Volume (RV), Mean (Standard Deviation)","Cohort 1: 200 mg QD, Cycle 55, Day 1, n=1",53.0 (—) percent predicted RV
same,"Change From Baseline in Percent Predicted Residual Volume (RV), Mean (Standard Deviation)","Cohort 1: 200 mg QD, Cycle 56, Day 1, n=1",17.0 (—) percent predicted RV
same,"Change From Baseline in Percent Predicted Residual Volume (RV), Mean (Standard Deviation)","Cohort 1: 200 mg QD, Cycle 57, Day 1, n=1",18.0 (—) percent predicted RV
same,"Change From Baseline in Percent Predicted Residual Volume (RV), Mean (Standard Deviation)","Cohort 1: 200 mg QD, Cycle 58, Day 1, n=1",4.0 (—) percent predicted RV
same,"Change From Baseline in Percent Predicted Residual Volume (RV), Mean (Standard Deviation)","Cohort 1: 200 mg QD, Cycle 60, Day 1, n=1",−20.0 (—) percent predicted RV
same,"Change From Baseline in Percent Predicted Residual Volume (RV), Mean (Standard Deviation)","Cohort 1: 200 mg QD, Cycle 61, Day 1, n=1",−18.0 (—) percent predicted RV
same,"Change From Baseline in Percent Predicted Residual Volume (RV), Mean (Standard Deviation)","Cohort 1: 200 mg QD, Cycle 62, Day 1, n=1",−8.0 (—) percent predicted RV
same,"Change From Baseline in Percent Predicted Residual Volume (RV), Mean (Standard Deviation)","Cohort 1: 200 mg QD, Cycle 63, Day 1, n=1",6.0 (—) percent predicted RV
same,"Change From Baseline in Percent Predicted Residual Volume (RV), Mean (Standard Deviation)","Cohort 1: 200 mg QD, Cycle 67, Day 1, n=1",2.0 (—) percent predicted RV
same,"Change From Baseline in Percent Predicted Residual Volume (RV), Mean (Standard Deviation)","Cohort 1: 200 mg QD, EOT, n=11",6.3 (24.3) percent predicted RV
same,"Change From Baseline in Percent Predicted Residual Volume (RV), Mean (Standard Deviation)","Cohort 2: 200 mg BID, Cycle 3, Day 1, n=12",−4.6 (18.8) percent predicted RV
same,"Change From Baseline in Percent Predicted Residual Volume (RV), Mean (Standard Deviation)","Cohort 2: 200 mg BID, Cycle 5, Day 1, n=11",−11.5 (26.9) percent predicted RV
same,"Change From Baseline in Percent Predicted Residual Volume (RV), Mean (Standard Deviation)","Cohort 2: 200 mg BID, Cycle 7, Day 1, n=8",−9.9 (17.1) percent predicted RV
same,"Change From Baseline in Percent Predicted Residual Volume (RV), Mean (Standard Deviation)","Cohort 2: 200 mg BID, Cycle 8, Day 1, n=1",−28.0 (—) percent predicted RV
same,"Change From Baseline in Percent Predicted Residual Volume (RV), Mean (Standard Deviation)","Cohort 2: 200 mg BID, Cycle 9, Day 1, n=8",−19.9 (24.3) percent predicted RV
same,"Change From Baseline in Percent Predicted Residual Volume (RV), Mean (Standard Deviation)","Cohort 2: 200 mg BID, Cycle 10, Day 1, n=2",−47.5 (0.7) percent predicted RV
same,"Change From Baseline in Percent Predicted Residual Volume (RV), Mean (Standard Deviation)","Cohort 2: 200 mg BID, Cycle 11, Day 1, n=6",−10.5 (28.3) percent predicted RV
same,"Change From Baseline in Percent Predicted Residual Volume (RV), Mean (Standard Deviation)","Cohort 2: 200 mg BID, Cycle 12, Day 1, n=1",−5.0 (—) percent predicted RV
